Results from patent US20260139314A1, “COMPOSITION AND METHOD FOR PREDICTING SULFONYLUREA DEPENDENCY USING GIPR MARKER” (Seoul National University Hospital, priority 2022, published 2026).

How the values were obtained:
[1] = test system: INS1 rat insulinoma cells; experiment: GIP-induced insulin secretion (ELISA); assay type: cell-based; details: GIPR inhibitor 100 nM, 24 h
Method: INS1 rat insulinoma cells were transfected with 80-nM siRNA for Gipr and negative control.
(c) ELISA: Insulin secretion induced by GIP treatment (50 nM for 1 hour) was attenuated by siGipr. • siGipr, siRNA for Gipr; siNS, siRNA for negative control; siRNA, small interfering RNA; NS, no significant difference
(§1) INS1 rat insulinoma cells were treated with a GIPR inhibitor (rat GIP(3-30), 100 nM, 24 h) and the inhibition of insulin secretion by GIP was confirmed. Insulin secretion was stimulated with low-dose SU (50 nM glimepiride for 30 minutes) and measured using an ELISA kit.
Experiments were conducted to suppress the expression of the rat Gipr gene, which shares the same gene sequence as human GIPR.

[2] = test system: INS1 rat insulinoma cells; experiment: Insulin secretion stimulated with low-dose SU (50 nM glimepiride, ELISA); assay type: cell-based; details: non-diabetic conditions; GIPR inhibitor 100 nM, 24 h; 50 nM glimepiride for 30 minutes
Method: INS1 rat insulinoma cells were transfected with siGipr and siNS (80 nM) and stimulated for insulin secretion with low-dose SU (50 nM glimepiride for 30 minutes). Insulin secretion was measured using an ELISA kit.
(a) Physiological condition (b) Diabetic condition simulated by pre-treating with 15-mM glucose and 150-μM palmitic acid for 24 hours (glucolipotoxicity).
as §1
Next, the SU response was examined based on Gipr suppression. […] However, under diabetic conditions—chronic exposure to high glucose and fatty acids (glucolipotoxicity)—Gipr suppression increased insulin secretion in response to low-dose SU (FIG. 4b).

Substance: rat GIP(3-30)
- Inhibition of insulin secretion by GIP [1]: confirmed
- Insulin secretion by SU [2]: trend of enhanced insulin secretion
